# Results published in patent publication US9943529B2, “Methods for reducing cellular proliferation and treating certain diseases” (BRIGHAM YOUNG UNIVERSITY, priority 2013, dated 2018).
# Tests used:
# Conditions in all cases: 10 μM, 48 hours
# [1] = system: CCRF-CEM; experiment: NCI screen antiproliferative activity, sulforhodamine B, Leukemia panel; assay type: cell-based, human
# Method: (§1) The antiproliferative activity of compounds were determined in the National Cancer Institute (NCI) screen (Drug. Dev. Res. 1995, 34, 91-109; J. Natl. Cancer Inst. 1990, 82, 1107-1112; Drug Dev. Res. 1995, 34, 91-109). For certain compounds, cells of approximately 60 different human cancer cell lines were incubated for 48 hours with five 10-fold dilutions of the tested compounds starting from 100 μM and then treated with sulforhodamine B dye. For other compounds, cells of approximately 60 different human cancer cell lines were incubated for 48 hours with a concentration of 10 μM test compound. The ratios of recorded optical densities relative to that of the control were plotted as a function of the common logarithm of the tested compound concentrations or growth percent (for single concentration tests). The interpolation between the points located above and below the 50% percentage growth provided 50% growth inhibition (GI50) values. Total growth inhibition (TGI) and 50% lethal concentrations (LC50) were also calculated using reported methods. A “-” means not tested and/or not-determined.
# [2] = system: HL-60(TB); experiment: as above; assay type: cell-based, human
# Method: as §1
# [3] = system: K-562; experiment: as above; assay type: cell-based, human
# [4] = system: MOLT-4; experiment: as above; assay type: cell-based, human
# [5] = system: RPMI-8226; experiment: as above; assay type: cell-based, human
# [6] = system: SR; experiment: as above; assay type: cell-based, human
# [7] = system: COLO 205; experiment: NCI screen antiproliferative activity, sulforhodamine B, Colon Cancer panel; assay type: cell-based, human
# [8] = system: KM12; experiment: as above; assay type: cell-based, human
# [9] = system: SW-620; experiment: as above; assay type: cell-based, human
# [10] = system: LOX IMVI; experiment: NCI screen antiproliferative activity, sulforhodamine B, Melanoma panel; assay type: cell-based, human
# [11] = system: MALME-3M; experiment: as above; assay type: cell-based, human
# [12] = system: SK-MEL-5; experiment: as above; assay type: cell-based, human
# [13] = system: NCI/ADR-RES; experiment: NCI screen antiproliferative activity, sulforhodamine B, Ovarian Cancer panel; assay type: cell-based, human
# Method: as §1
# [14] = system: A498; experiment: NCI screen antiproliferative activity, sulforhodamine B, Renal Cancer panel; assay type: cell-based, human
# Method: as §1
# [15] = system: HS 578T; experiment: NCI screen antiproliferative activity, sulforhodamine B, Breast Cancer panel; assay type: cell-based, human
# [16] = system: MDA-MB-468; experiment: as above; assay type: cell-based, human
# Method: as §1
# [17] = system: A549/ATCC
# [18] = system: HOP-62
# [19] = system: HOP-92
# [20] = system: NCI-H226
# [21] = system: NCI-H23
# [22] = system: NCI-H322M
# [23] = system: NCI-H460
# [24] = system: NCI-H522
# [25] = system: HCC-2998
# [26] = system: HCT-116
# [27] = system: HCT-15
# [28] = system: HT29
# [29] = system: SF-268
# [30] = system: SF-539
# [31] = system: SNB-19
# [32] = system: SNB-75
# [33] = system: M14
# [34] = system: SK-MEL-2
# [35] = system: SK-MEL-28
# [36] = system: UACC-62
# [37] = system: IGROV1
# [38] = system: OVCAR-3
# [39] = system: OVCAR-4
# [40] = system: OVCAR-5
# [41] = system: OVCAR-8
# [42] = system: SK-OV-3
# [43] = system: 786-0
# [44] = system: ACHN
# [45] = system: CAKI-1
# [46] = system: RXF 393
# [47] = system: SN12C
# [48] = system: TK-10
# [49] = system: UO-31
# [50] = system: PC-3
# [51] = system: DU-145
# [52] = system: MCF7
# [53] = system: MDA-MB-231/ATCC
# [54] = system: MDA-MB-435
# [55] = system: BT-549
# [56] = system: T-47D
smiles,measurement,setting,value
CCCCCCCCOC(=O)CC[C@@H](C)[C@H]1CC[C@H]2[C@@H]3[C@H](OC(=O)CCN)C[C@@H]4C[C@H](OC(=O)CCN)CC[C@]4(C)[C@H]3C[C@H](OC(=O)CCN)[C@]12C [CSA-44],Growth Percent,[1],−37.46%
same,Growth Percent,[2],43.69%
same,Growth Percent,[3],−74.53%
same,Growth Percent,[4],26.15%
same,Growth Percent,[5],77.75%
same,Growth Percent,[6],−12.92%
same,Growth Percent,[7],66.35%
same,Growth Percent,[8],77.75%
same,Growth Percent,[9],20.01%
same,Growth Percent,[10],63.17%
same,Growth Percent,[11],67.83%
same,Growth Percent,[12],96.98%
same,Growth Percent,[13],100.83%
same,Growth Percent,[14],130.78%
same,Growth Percent,[15],79.51%
same,Growth Percent,[16],3.95%
same,Growth Percent,[17],81.31%
same,Growth Percent,[18],37.66%
same,Growth Percent,[19],40.75%
same,Growth Percent,[20],89.76%
same,Growth Percent,[21],90.31%
same,Growth Percent,[22],71.42%
same,Growth Percent,[23],73.70%
same,Growth Percent,[24],10.80%
same,Growth Percent,[25],84.20%
same,Growth Percent,[26],49.30%
same,Growth Percent,[27],101.79%
same,Growth Percent,[28],39.62%
same,Growth Percent,[29],69.72%
same,Growth Percent,[30],56.26%
same,Growth Percent,[31],115.74%
same,Growth Percent,[32],63.88%
same,Growth Percent,[33],84.43%
same,Growth Percent,[34],126.21%
same,Growth Percent,[35],58.43%
same,Growth Percent,[36],103.61%
same,Growth Percent,[37],77.22%
same,Growth Percent,[38],107.53%
same,Growth Percent,[39],75.66%
same,Growth Percent,[40],92.12%
same,Growth Percent,[41],69.53%
same,Growth Percent,[42],90.91%
same,Growth Percent,[43],99.05%
same,Growth Percent,[44],96.19%
same,Growth Percent,[45],107.94%
same,Growth Percent,[46],108.72%
same,Growth Percent,[47],77.59%
same,Growth Percent,[48],135.94%
same,Growth Percent,[49],104.69%
same,Growth Percent,[50],87.30%
same,Growth Percent,[51],74.35%
same,Growth Percent,[52],10.84%
same,Growth Percent,[53],69.26%
same,Growth Percent,[54],74.13%
same,Growth Percent,[55],124.30%
same,Growth Percent,[56],88.83%
